Experiments:
[1] = test system: CD1 mice, controlled cortical impact (CCI) severe TBI model; experiment: Pial intravital microscopy: in vivo LEU/EC interactions; conditions: pial penumbral microcirculation, 48 hours after CCI, doses 0.5 and 24 hours after CCI, ±SEM
Experimental: (§1) Procedures received approval from the University of Pennsylvania Institutional Animal Care and Use Committee. CD1 adult male mice (25-30 g) (Charles River Laboratories; Wilmington, Mass.) were acclimated in standard housing with ad libitum water and chow for 5 days before experiments and immediately after recovery from brain injury. Mice underwent controlled cortical impact (CCI) or sham craniotomy (SHAM) and then received one of three agents: 1) subcutaneous enoxaparin (ENX, 1.5 mg/kg) (Winthrop, Sanofi-Aventis; Bridgewater, N.J.); intravenous (femoral vein) pharmaceutical grade antithrombin-III (AT-III, 250 IU/kg, donated by Grifols S.A. (Durham, N.C.); or 3) an equal volume of IV normal saline (0.9% NS, Baxter; Deerfield, Ill.). Doses were administered 0.5 and 24 hours after the CCI (FIG. 1).
(§2) Seventy-one (71) mice were randomly assigned to one of six groups: 1) sham craniotomy and vehicle (VH, 0.9% normal saline, Baxter Healthcare Corporation; Deerfield, Ill.), (SHAM +VEH, n=9); 2) sham craniotomy and ENX (SHAM+ENX, n=8); 3) sham craniotomy and AT-III (SHAM+AT-III, n=9); 4) TBI and vehicle (CCI+VEH, n=19); TBI and ENX (CCI+ENX, n=13); and 6) TBI and AT-III (CCI+AT-III, n=13).
(§3) CCI was used to replicate TBI through a well-validated rodent model (16, 17). Briefly, on day 1, mice were anesthetized with intraperitoneal ketamine (Hospira; Lake Forest, Ill.), xylazine (Alcorn; Decatur, Ill.), and acepromazine (Boehringer Ingelheim; St. Joseph, Mo.) (KXA: 100, 10, 1 mg/kg, respectively) and place prone in a stereotactic device. After scalp exposure, a left-sided 4-mm craniotomy was created between bregma and lambda structures using a dental drill (Henry Schein; Melville, N.Y.) without violating the dura.
In vivo assessment of cerebral microcirculation using pial intravital microscopy was performed 48 hours after CCI as described previously, as this is the optimal time to observe peak leukocyte mobilization to the BBB penumbra after brain injury. Under KXA anesthesia, the right jugular vein was cannulated and a second 2.5 mm craniotomy was created immediately anterior to the first and covered with a 5 mm coverslip (Fisher Scientific; Waltham, Mass.). […]
Video data captured at 590 nm λ were imported into analysis software (NIS-Elements, Nikon Instruments; Melville, N.Y.) and LEU/EC interactions were counted by a blinded observer quantifying the following parameters: 1) LEU transit: mean number of labelled EU crossing a 100 μm long venular segment in 60 seconds; and 2) LEU adhesion: number of LEU stationary for at least 30 seconds during the recording period. Fluorescently labelled spherical cells measuring 7 to 12 μm were counted as LEU and interactions were reported as the number of cells/100 μm per minute (FIGS. 2A and 2B).

[2] = test system: CD1 mice, controlled cortical impact (CCI) severe TBI model; experiment: Pial intravital microscopy: FITC-albumin leakage (microvascular permeability); type: in vivo; conditions: for Cerebrovascular FITC-albumin leakage: 48 hours after CCI, doses 0.5 and 24 hours after CCI, ±SEM
Experimental: as §1, §2
as §3, with “dura. […]” for “dura.”
Footage captured under the 488 nm filter was evaluated for fluorescence intensity from FITC-labelled albumin measured in three distinct regions within the vessel (venular intensity) and outside the vessel walls (perivenular intensity) (FIGS. 3A and 3B). […]

[3] = test system: CD1 mice, controlled cortical impact (CCI) or sham craniotomy; experiment: Brain water content (brain edema, wet-to-dry ratio); type: in vivo; conditions: for Contralateral (%) Mean brain water content / Contralateral (%) Median brain water content / Ipsilateral (%) Mean brain water content / Ipsilateral (%) Median brain water content / Ratio (ipsi/contra) brain water content: 48 hours after CCI; for cerebral edema as compared to CCI+VEH: 48 hours, p>0.05
Experimental: as §1, §2, §3
Forty-eight hours after CCI, mice were sacrificed and excised brains were separated into injured (ipsilateral) and uninjured (contralateral) hemispheres. Wet weight (WW) was immediately assessed. Dry weight (DW) was assessed after 72 hours of dehydration at 70° C. Tissue water content was calculated using wet-to-dry ratios: % water content=100×(WW−DW)/WW.

[4] = test system: CD1 mice, controlled cortical impact (CCI) severe TBI model; experiment: Garcia Neurological Test (GNT); type: in vivo; conditions: injured (CCI) mice, 24 or 48 hour post-TBI; maximum 18 points; ±SEM
Experimental: as §1, with “1). […]” for “1).”
(§4) Animal body weights (BW) were obtained just before (W0h) as well as 24 and 48 hours after CCI with animal weight loss expressed as a ratio: (W0h-W24h or W48h)/W0h×100%. Murine neurologic function was assessed by the modified Stroke Garcia Neurologic Test (GNT) assessing motor, sensory, reflex, and balance ability at 24 hours and 48 hours after TBI. […]

[5] = Body weight loss after CCI; type: in vivo; conditions: CCI mice, 48 hours after TBI; (W0h-W48h)/W0h×100%; ±SEM
Experimental: as §1, with “1). […]” for “1).”
as §4

[6] = test system: CD1 mice, controlled cortical impact (CCI) severe TBI model; experiment: Morris water maze cued learning trials; type: in vivo
Experimental: (§5) Experimental procedures were conducted with the approval of the University of Pennsylvania Institutional Animal Care and Use Committee. CD1 adult male mice (25-30 g) (Charles River Laboratories, Wilmington, Mass.) were acclimatized in standard housing with water and chow ad libitum for 7 days before experiments after which they underwent sham craniotomy or craniotomy accompanied by controlled cortical impact (CCI), a well-validated severe TBI rodent model (Pascual et al., Am J Surg. 2013;206(6):840-846; Smith et al., J Neurotrauma. 1995; 12(2):169-178). Mice were anesthetized with intraperitoneal ketamine (Hospira, Lake Forest, Ill.), xylazine (Akorn, Decatur, Ill.), and acepromazine (Boehringer Ingelheim, St. Joseph, Mo.) (100, 10, 1 mg/kg, respectively) followed by subcutaneous bupivacaine (0.5 mg/mL) for longer-term analgesia. After creation of a left-sided, 4-mm craniotomy between bregma and lambda sutures, the exposed left parietotemporal cortex was injured via a controlled cortical impactor (AMS201; AmScien Instruments, Richmond, Va.). Controlled cortical impact settings (3-mm-diameter impactor tip, impact velocity of 6 m/s, and cortical deformation depth of 1 mm) replicated severe TBI (Smith et al., J Neurotrauma. 1995; 12(2):169-178). Rodents were then randomly allocated to receive either: (1) intravenous (via femoral vein) pharmaceutical grade AT-III (250 IU/kg, donated by Grifols S. A., Durham, N.C.) or (2) an equal volume of normal saline IV (0.9% NS; Baxter; Deerfield, Ill.) as a vehicle (VEH). Doses were administered 0.5 and 24 hours after CCI (FIG. 1) as determined by previous published reports and the manufacturer's recommendations (ElSaadani et al., J Trauma Acute Care Surg. 2021; 90(2):274-280; Uchiba et al., Thromb Res. 1998; 89(5):233-241; Uchiba et al., Semin Thromb Hemost. 1997; 23(6):583-590).
Fifteen mice (ElSaadani et al., J Trauma Acute Care Surg. 2021; 90(2):274-280) were randomized into three groups: (1) sham craniotomy (no CCI) plus VEH (SHAM, n=5), (2) TBI and VEH (CCI-VEH, n=5), and (3) TBI and AT-III (CCI−AT-III, n=5).
(§6) Learning and memory were evaluated in a Morris water maze (MWM) using a previously published protocol (Vorhees et al., Nat Protoc. 2006; 1(2):848-858; Jacovides et al., J Trauma Acute Care Surg. 2019; 87(3):552-558). After a recovery period of 6 days, each animal underwent daily. MWM trials of learning and memory for 9 consecutive days. […] All swimming trials were conducted and scored by the same operator, at the same time of day on all experiment days incorporating a computerized video-tracking and recording system over the pool to facilitate analysis (Ethovision; Noldus, Leesburg, Va.). […]

[7] = test system: CD1 mice, controlled cortical impact (CCI) severe TBI model; experiment: Morris water maze spatial learning trials; type: in vivo; conditions: ±SEM
Experimental: as §5, with “Controlled cortical impact settings (3-mm-diameter impactor tip, impact velocity of 6 m/s, and cortical deformation depth of 1 mm) replicated severe TBI (Smith et al., J Neurotrauma. 1995; 12(2):169-178). Rodents were then randomly allocated to receive either: (1) intravenous (via femoral vein) pharmaceutical grade AT-III (250 IU/kg, donated by Grifols S. A., Durham, N.C.) or (2) an equal volume of normal saline IV (0.9% NS; Baxter; Deerfield, Ill.) as a vehicle (VEH).” left out, “23(6):583-590). […]” for “23(6):583-590).”
as §6, with “87(3):552-558).” for “87(3):552-558). After a recovery period of 6 days, each animal underwent daily. MWM trials of learning and memory for 9 consecutive days.”
On postcraniotomy days 9 to 13, daily spatial learning trials evaluated the animals' ability to use environmental visual cues to locate and reach the platform. […]

[8] = test system: CD1 mice, controlled cortical impact (CCI) severe TBI model; experiment: Morris water maze probe trials (long-term memory); type: in vivo; conditions: days 10 to 14 post-TBI, CCI mice vs CCI-VEH
Experimental: Experimental procedures were conducted with the approval of the University of Pennsylvania Institutional Animal Care and Use Committee. CD1 adult male mice (25-30 g) (Charles River Laboratories, Wilmington, Mass.) were acclimatized in standard housing with water and chow ad libitum for 7 days before experiments after which they underwent sham craniotomy or craniotomy accompanied by controlled cortical impact (CCI), a well-validated severe TBI rodent model (Pascual et al., Am J Surg. 2013;206(6):840-846; Smith et al., J Neurotrauma. 1995; 12(2):169-178). […] Doses were administered 0.5 and 24 hours after CCI (FIG. 1) as determined by previous published reports and the manufacturer's recommendations (ElSaadani et al., J Trauma Acute Care Surg. 2021; 90(2):274-280; Uchiba et al., Thromb Res. 1998; 89(5):233-241; Uchiba et al., Semin Thromb Hemost. 1997; 23(6):583-590). […]
as §6, with “87(3):552-558).” for “87(3):552-558). After a recovery period of 6 days, each animal underwent daily. MWM trials of learning and memory for 9 consecutive days.”

Substance | LEU adhesion [1] | LEU transit [1] | Cerebrovascular FITC-albumin leakage [2] | Contralateral (%) Mean brain water content [3] | Contralateral (%) Median brain water content [3] | Ipsilateral (%) Mean brain water content [3] | Ipsilateral (%) Median brain water content [3] | Ratio (ipsi/contra) brain water content [3] | cerebral edema as compared to CCI+VEH [3] | GNT score (stroke functional recovery score) [4] | decrease of macromolecular leakage (blood brain barrier integrity) ([2]; pial vessels, vs untreated injured) | Body weight loss [5] | time to reach the exposed platform, course over days ([6]; cued learning trials, compared with SHAM) | swimming velocity ([6]; cued learning trials, days 6-8 post-TBI, ±SEM) | mean time to reach the platform ([6]; cued learning trials, ±SEM) | cumulative cued learning (overall mean group time to reach the platform) ([6]; throughout days 6 to 8 post-TBI, ±SEM) | mean group cumulative swimming time ([7]; all 5 days of spatial learning trials, CCI mice) | swimming time (time to reach platform) ([7]; day 13, last day of spatial learning trials, CCI mice) | overall swim distance ([7]; spatial learning trials, days 9 to 13, CCI mice) | cognitive recovery: memory [8]
enoxaparin [ENX, reference compound] | 3.5±0.8 LEUs/100 um/min | 24.9±2.8 LEUs/100 um/min | 49.1±2.3% | 77.26% | 77.38% | 78.3674% | 79.03% | 1.014 | did not significantly reduce cerebral edema | 12.4±0.4 |  |  |  |  |  |  |  |  |  | 
antithrombin-III [AT-III] | 3.2±0.5 LEUs/100 um/min | 24.8±2.1 LEUs/100 um/min | 41.9±2.8% | 75.12% | 77.7% | 77.64% | 78.6192% | 1.033 | did not significantly reduce cerebral edema | 13.1±0.3 | more than 25% | 8.4±1% | eventually reached SHAM times by day 7 | 28.4 ± 1.1 cm/s | 20.1 ± 3.1 s | 20.3 ± 2.1 s | 17.6 ± 1.5 s | 17.6 ± 3.9 s | 306.9±27.9 cm | not memory
